Measured values: US20160368879A1, “PHOTOACID GENERATOR, AND RESIN COMPOSITION FOR PHOTOLITHOGRAPHY” (SAN-APRO LTD., priority 2013, published 2016)

Key:
Format in all cases: physicochemical
[1] = Molar extinction coefficient of i-line (365 nm), UV-visible absorbance in acetonitrile; settings: 0.25 mmol/L in acetonitrile, cell length 1 cm
Experimental: The synthesized photoacid generator was diluted to 0.25 mmol/L with acetonitrile, and using an ultraviolet-visible spectrophotometer (UV-2550 available from SHIMADZU CORPORATION), the absorbance in a range of 200 nm to 500 nm was measured with a cell having an optical path length (a cell length) of 1 cm. The molar extinction coefficient of i-line (365 nm) (ε365) was calculated from the following equation.
[In the equation, […] represents the absorbance at 365 nm.]

[2] = Thermal decomposition temperature (TG/DTA, 2% weight reduction); settings: point of 2% weight reduction; 10° C./minute from 30° C. to 500° C.; nitrogen atmosphere
Experimental: The synthesized photoacid generator was measured for the change in weight under a temperature increasing condition of 10° C./minute from 30° C. to 500° C. under a nitrogen atmosphere using a thermal gravimetric/differential thermal analyzer (TG/DTA 6200, available from Seiko Instruments Inc.), and a point where the weight was reduced by 2% was defined as the thermal decomposition temperature.

[3] = Solvent solubility (butyl acetate, toluene or PGMEA); settings: for Solvent solubility PGMEA / Solvent solubility Butyl acetate / Solvent solubility Toluene: 25° C.; for solubility to a solvent (in words): summary of Tables 4 to 6
Experimental: In a test tube, 0.1 g of the synthesized photoacid generator was placed, and an organic solvent (butyl acetate, toluene or PGMEA) was added thereto in 0.2 g portions under a condition where the temperature was adjusted to 25° C. until the photoacid generator was completely dissolved. In this connection, in the case where the photoacid generator was not completely dissolved even when 20 g of the solvent was added, the photoacid generator was evaluated as one that was not dissolved.

Molar extinction coefficient [1]	Thermal decomposition temperature [2]	Solvent solubility PGMEA [3]	Solvent solubility Butyl acetate [3]	Solvent solubility Toluene [3]	solubility to a solvent (in words) [3]	Compound
3000 L/mol/cm	242 °C	3.2 wt %	3.5 wt %	5.5 wt %		O=C(Cc1ccccc1)c1ccc2c3c(cccc13)C(=O)N(OS(=O)(=O)c1c(F)c(F)c(F)c(F)c1F)C2=O [Example A-24, 4-phenylacetyl-1,8-naphthalimide pentafluorobenzenesulfonate]
7500 L/mol/cm	240 °C	5 wt %	6.5 wt %	6 wt %		COc1cc2c3c(cccc3c1)C(=O)N(OS(=O)(=O)c1c(F)c(F)c(F)c(F)c1F)C2=O [Example A-28, 3-methoxy-1,8-naphthalimide pentafluorobenzenesulfonate]
20000 L/mol/cm	244 °C	1.3 wt %	1.8 wt %	1.7 wt %		CC1(C)C2CC[C@@]1(CS(=O)(=O)ON1C(=O)c3cccc4c(Sc5ccccc5)ccc(c34)C1=O)C(=O)C2 [Example A-47, 4-phenylthio-1,8-naphthalimide-(+)-10-camphorsulfonate]
1600 L/mol/cm	237 °C	7.2 wt %	9 wt %	7 wt %		CCCC(=O)Oc1cc2c3c(cccc3c1)C(=O)N(OS(=O)(=O)CC13CCC(CC1=O)C3(C)C)C2=O (stereo not drawn) [Example A-50, 3-butyroyloxy-1,8-naphthalimide-(+)-10-camphorsulfonate]
12000 L/mol/cm	232 °C	7 wt %	7.5 wt %	10 wt %		O=C1c2cccc3c(OCC(F)(F)C(F)F)ccc(c23)C(=O)N1OS(=O)(=O)c1c(F)c(F)c(F)c(F)c1F [Example A-23, 4-(2,2,3,3-tetrafluoro-1-propoxy)-1,8-naphthalimide pentafluorobenzenesulfonate]
6000 L/mol/cm	225 °C	3.5 wt %	3 wt %	5 wt %		O=C1c2cccc3c(Cl)ccc(c23)C(=O)N1OS(=O)(=O)c1c(F)c(F)c(F)c(F)c1F [Example A-39, 4-chloro-1,8-naphthalimide pentafluorobenzenesulfonate]
12000 L/mol/cm	247 °C	11 wt %	14 wt %	13 wt %		O=C1c2cccc3c(Oc4c(F)c(F)c(F)c(F)c4F)ccc(c23)C(=O)N1OS(=O)(=O)c1c(F)c(F)c(F)c(F)c1F [Example A-25, 4-pentafluorophenoxy-1,8-naphthalimide pentafluorobenzenesulfonate]
6000 L/mol/cm	251 °C	5.5 wt %	6 wt %	9 wt %		O=C1c2cc(C34CC5CC(CC(C5)C3)C4)cc3cc(C45CC6CC(CC(C6)C4)C5)cc(c23)C(=O)N1OS(=O)(=O)c1c(F)c(F)c(F)c(F)c1F [Example A-35, 3,6-diadamantyl-1,8-naphthalimide pentafluorobenzenesulfonate]
80 L/mol/cm	246 °C	9 wt %	9.5 wt %	10 wt %		CC1(C)C2CCC1(CS(=O)(=O)ON1C(=O)c3cccc4c(C(F)(F)C(F)(F)C(F)(F)C(F)(F)C(F)(F)C(F)(F)C(F)(F)C(F)(F)F)ccc(c34)C1=O)C(=O)C2 (stereo not drawn) [Example A-57, 4-(heptadecafluoro-n-octyl)-1,8-naphthalimide-(+)-10-camphorsulfonate]
6000 L/mol/cm	253 °C	1.7 wt %	2 wt %	2.1 wt %		CC1(C)C2CC[C@@]1(CS(=O)(=O)ON1C(=O)c3cc(C45CC6CC(CC(C6)C4)C5)cc4cc(C56CC7CC(CC(C7)C5)C6)cc(c34)C1=O)C(=O)C2 [Example A-55, 3,6-diadamantyl-1,8-naphthalimide-(+)-10-camphorsulfonate]

The next lines start with the compound.

Compound	Molar extinction coefficient [1]	Thermal decomposition temperature [2]	Solvent solubility PGMEA [3]	Solvent solubility Butyl acetate [3]	Solvent solubility Toluene [3]	solubility to a solvent (in words) [3]
c1ccc(Sc2ccc([S+](c3ccccc3)c3ccccc3)cc2)cc1 [A′-2, reference compound]	80 L/mol/cm	340 °C	>30 wt %	<0.5 wt %	<0.5 wt %	
COc1cc2c3c(cccc3c1)C(=O)N(OS(=O)(=O)C(F)(F)F)C2=O [Example A-8, 3-methoxy-1,8-naphthalimide trifluoromethanesulfonate]	7500 L/mol/cm	243 °C	6 wt %	8 wt %	7.5 wt %	
CC(C)Oc1ccc2c3c(cccc13)C(=O)N(OS(=O)(=O)c1c(F)c(F)c(F)c(F)c1F)C2=O [Example A-21, 4-isopropoxy-1,8-naphthalimide pentafluorobenzenesulfonate]	16300 L/mol/cm	236 °C	4.5 wt %	4 wt %	3.5 wt %	
CCCOc1ccc2c3c(cccc13)C(=O)N(OS(=O)(=O)c1c(F)c(F)c(F)c(F)c1F)C2=O [Example A-22, 4-n-propoxy-1,8-naphthalimide pentafluorobenzenesulfonate]	14000 L/mol/cm	240 °C	3 wt %	3.5 wt %	6 wt %	
CC(C)Oc1ccc2c3c(cccc13)C(=O)N(OS(=O)(=O)C(F)(F)F)C2=O [Example A-1, 4-isopropoxy-1,8-naphthalimide trifluoromethanesulfonate]	16300 L/mol/cm	234 °C	6.5 wt %	8.5 wt %	9 wt %	
O=C1c2cccc3cccc(c23)C(=O)N1OS(=O)(=O)c1c(F)c(F)c(F)c(F)c1F [A′-3, 1,8-naphthalimide pentafluorobenzenesulfonate, reference compound]	330 L/mol/cm	228 °C	1.9 wt %	1.6 wt %	3.2 wt %	insufficient
O=C1c2cccc3c(Oc4cccc(C(F)(F)F)c4)ccc(c23)C(=O)N1OS(=O)(=O)C(F)(F)F [Example A-6, 4-(3-trifluoromethylphenoxy)-1,8-naphthalimide trifluoromethanesulfonate]	16000 L/mol/cm	239 °C	11 wt %	14 wt %	13 wt %	
CC1(C)C2CCC1(CS(=O)(=O)ON1C(=O)c3cccc4cccc(c34)C1=O)C(=O)C2 (stereo not drawn) [A′-5, 1,8-naphthalimide-(+)-10-camphorsulfonate, reference compound]	330 L/mol/cm	230 °C	<0.5 wt %	<0.5 wt %	<0.6 wt %	insufficient
O=C1c2cccc3c(OCC(F)(F)C(F)F)ccc(c23)C(=O)N1OS(=O)(=O)C(F)(F)F [Example A-3, 4-(2,2,3,3-tetrafluoro-1-propoxy)-1,8-naphthalimide trifluoromethanesulfonate]	12000 L/mol/cm	230 °C	7.5 wt %	6 wt %	12 wt %	
C[Si](C)(C)c1ccc2c3c(cccc13)C(=O)N(OS(=O)(=O)C(F)(F)F)C2=O [Example A-18, 4-trimethylsilyl-1,8-naphthalimide trifluoromethanesulfonate]	5500 L/mol/cm	240 °C	8 wt %	7.5 wt %	9 wt %	
